Assays:
[1] = test system: HSAX2655 tumor; test: Well differentiated liposarcoma (WDLPS) patient-derived in vivo model HSAX2655, efficacy; design: species or system Harlan nude mice; conditions: p.o., q24h, Compound A 30 mg/kg, Compound C 75 mg/kg; for Tumor T/C: day 14 post 1st treatment; for Tumor ΔTvol: day 37 post transplantation (day 14 post 1st treatment)
Procedure: PDX tumors were induced by transplanting subcutaneously frozen pieces of tumors in the right flank of Harlan nude mice. After several weeks of growth, donor animals were sacrificed and tumors were taken out and cut in 3×3×3 mm^3 pieces. Each tumor piece was transplanted subcutaneously in the right flank of naive Harlan nude mice. Efficacy experiment could start 30 days post transplantation. Compounds A and C were formulated fresh for each administration. The compounds were dissolved in 0.5% methylcellulose. For efficacy experiments, mice were randomized into groups of n=5 and treated for 14 days. Compound A was injected at 30 mg/kg and Compound C at 75, 150 and 250 mg/kg. Mice were treated daily (q24 h) p.o. at 10 ml/kg for both drugs. On the last day of experiment, mice from each treatment group were sacrificed 4 and 24 h post last treatment and tumors were snap-frozen. Efficacy and tolerability were assessed by determining tumor volume and body weight, respectively. Tumor volume (TVol), determined from caliper measurements (using the formula I*w*h*π/6) were measured three times per week. Tumor response was quantified by the change in tumor volume (endpoint minus starting value in mm^3) as the T/C i.e. [formula] In the case of tumor regression, the tumor response was quantified by the percentage of regression of the starting TVol, ie Differences between the means of TVol and BW were assessed on the endpoint ΔTvol or % ΔBW using a 1-way ANOVA with Dunnett or Tukey's tests post-hoc. Linear correlations were explored by determining Pearson correlation coefficient, with P<0.05 considered as significant. A non-statistical analysis of the combination effects of therapy on the efficacy were calculated using a modification of the method described by Clark (1997) to obtain a Combination Index (CI). Thus, multiplication of the AUC-T/Cs for single agents A and B was compared to the AUC-T/C obtained for the actual combination A+B.

[2] = Tolerability in HSAX2655-tumor bearing mice (body weight, survival); format: in vivo; conditions: p.o., q24h, Compound A 30 mg/kg, Compound C 75 mg/kg, day 14 post 1st treatment; for Host Survival: survivors/group
Procedure: Compounds A and C were formulated fresh for each administration. The compounds were dissolved in 0.5% methylcellulose. For efficacy experiments, mice were randomized into groups of n=5 and treated for 14 days. Compound A was injected at 30 mg/kg and Compound C at 75, 150 and 250 mg/kg. Mice were treated daily (q24 h) p.o. at 10 ml/kg for both drugs. On the last day of experiment, mice from each treatment group were sacrificed 4 and 24 h post last treatment and tumors were snap-frozen.
Efficacy and tolerability were assessed by determining tumor volume and body weight, respectively. Tumor volume (TVol), determined from caliper measurements (using the formula I*w*h*π/6) were measured three times per week. Tumor response was quantified by the change in tumor volume (endpoint minus starting value in mm^3) as the T/C i.e.
[formula] The body-weight (BW) of the mice was measured three times per week allowing calculation at any particular time-point relative to the day of initiation of treatment (day 0) of both the percentage change in BW (Δ % BW).
Differences between the means of TVol and BW were assessed on the endpoint ΔTvol or % ΔBW using a 1-way ANOVA with Dunnett or Tukey's tests post-hoc. Linear correlations were explored by determining Pearson correlation coefficient, with P<0.05 considered as significant.

[3] = test system: liposarcoma cell line LP6; test: Microscopy (nuclei count) proliferation assay, 72 hrs, LP6 cells; format: cell-based; conditions: single agent
Procedure: (§1) Compounds B and C were dissolved in 100% DMSO (Sigma, Catalog number D2650) at concentrations of 10 mM and stored at −20° C. until use. Compounds were arrayed in 300 uL deep well 384-well plates (BrandTec, Catalog number 701355) at 8× the highest final concentration. Row and column dilutions were prepared separately using a Bravo liquid handler (Agilent Technologies). Dilutions were made at 1:2 giving a total of 10 dilutions for each compound. Once completed the row and column dilution plates were combined 1:1 giving a final stamping plate at 4× concentration.
(§2) The cell lines 449b, 778 and LP6 were cultured in RPMI1640 (ATCC, Catalog number 30-2110) supplemented with 10% FBS (HyClone, Catalog number SH30071.03) at 37° C. and 5% CO2. In all cases cells were thawed from frozen stocks, expanded through ≥1 passage using 1:6 dilutions. Cells were counted and assessed for viability using a ViCell counter (Beckman-Coulter). The identity of all the cell lines was confirmed by SNP profiling. […]
(§3) An automated image analysis pipeline was established using custom-made scripts in the open-source, statistical programming language R, and functions of the BioConductor package EBImage. The goal was to quantify the number of viable nuclei (cells) per well as an approximation for cell viability. […]

[4] = test system: liposarcoma cell line 449b; test: Microscopy (nuclei count) proliferation assay, 72 hrs, 449b cells; format: cell-based; conditions: single agent
Procedure: as §1, §2, §3

[5] = test system: liposarcoma cell line 778; test: Microscopy (nuclei count) proliferation assay, 72 hrs, 778 cells; format: cell-based; conditions: single agent
Procedure: as §1
The cell lines 449b, 778 and LP6 were cultured in RPMI1640 (ATCC, Catalog number 30-2110) supplemented with 10% FBS (HyClone, Catalog number SH30071.03) at 37° C. and 5% CO2. In all cases cells were thawed from frozen stocks, expanded through ≥1 passage using 1:6 dilutions. Cells were counted and assessed for viability using a ViCell counter (Beckman-Coulter). The identity of all the cell lines was confirmed by SNP profiling.
All cells were seeded at a concentration of […] cells/mL in 30 uL RPMI1640 media using a BioTek MicroFill (BioTek). Four 384-well plates were prepared per cell line (Greiner bio-one, catalog number 781091). The next day, compound was added using Bravo liquid handler. […] To other plates, compound was added and plates were incubated for 72 hrs. Following incubation period, 10 ul of the media was removed using the ELx405 Microplate Washer (BioTek/Thermo Scientific). […]
as §3

IC50 [5] [nM] | Compound | Tumor T/C [1] [%] | Tumor ΔTvol [1] | Host ΔBW [2] [%] | Host Survival [2] | IC50 [3] [nM] | IC50 [4] [nM] | IC50 ([5]; 72 h) [nM]
– | COc1cc2c(cc1OC(C)C)[C@H](c1ccc(Cl)cc1)N(c1ccc(N(C)C[C@H]3CC[C@H](N4CCN(C)C(=O)C4)CC3)cc1)C(=O)C2 [Compound A, (S)-1-(4-Chloro-phenyl)-7-isopropoxy-6-methoxy-2-(4-{methyl-[4-(4-methyl-3-oxo-piperazin-1-yl)-trans-cyclohexylmethyl]-amino}-phenyl)-1,4-dihydro-2H-isoquinolin-3-one] | 6 | 24 ± 12 ^a mm^3 | 6.9 ± 2.0 | 5/5 | – | – | –
64.6 | COc1ncc(-c2nc3c(n2C(C)C)[C@H](c2ccc(Cl)cc2)N(c2cc(Cl)cn(C)c2=O)C3=O)c(OC)n1 [Compound B, (S)-5-(5-Chloro-1-methyl-2-oxo-1,2-dihydro-pyridin-3-yl)-6-(4-chloro-phenyl)-2-(2,4-dimethoxy-pyrimidin-5-yl)-1-isopropyl-5,6-dihydro-1H-pyrrolo[3,4-d]imidazol-4-one] | – | – | – | – | 86 | 27.7 | 46.6
– | CN(C)C(=O)c1cc2cnc(Nc3ccc(N4CCNCC4)cn3)nc2n1C1CCCC1 [Compound C, 7-Cyclopentyl-2-(5-piperazin-1-yl-pyridin-2-ylamino)-7H-pyrrolo[2,3-d]pyrimidine-6-carboxylic acid dimethylamide] | 18 | 66 ± 18 ^a mm^3 | 4.7 ± 2.3 | 5/5 | 475 | 130 | 59.3
